PubChem BioAssay (NCI)
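Exposure lasted 48 hours, with cells grown in 96-well plates and compounds tested at five concentrations. GI50 = concentration required for 50% inhibition of growth. TGI is the concentration that stops growth completely.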

Tests used:
Assay in all cases: NCI-60 cell line screen, 48 h
786-0 renal = test system: 786-0 renal
A498 renal = test system: A498 renal
HL-60(TB) leukemia = test system: HL-60(TB) leukemia
HOP-62 NSCLC = test system: HOP-62 NSCLC
NCI-H522 lung = test system: NCI-H522 lung
SF-295 CNS = test system: SF-295 CNS
SF-539 CNS = test system: SF-539 CNS
NCI-H23 lung = test system: NCI-H23 lung
MDA-MB-231 breast = test system: MDA-MB-231 breast
MDA-MB-435 = test system: MDA-MB-435

Row | Compound | TGI (786-0 renal) | TGI (A498 renal) | TGI (HL-60(TB) leukemia) | TGI (HOP-62 NSCLC) | TGI (NCI-H522 lung) | TGI (SF-295 CNS) | TGI (SF-539 CNS) | TGI (NCI-H23 lung) | GI50 (786-0 renal) | GI50 (A498 renal) | GI50 (HL-60(TB) leukemia) | GI50 (HOP-62 NSCLC) | GI50 (NCI-H23 lung) | GI50 (NCI-H522 lung) | GI50 (SF-295 CNS) | GI50 (SF-539 CNS) | TGI (MDA-MB-231 breast) | TGI (MDA-MB-435) | GI50 (MDA-MB-231 breast) | GI50 (MDA-MB-435)
1 | O=C1/C(=N\O)c2ccccc2S1(=O)=O | > 100 µM | > 100 µM | > 100 µM | > 100 µM | > 100 µM | > 100 µM | > 100 µM | – | – | – | – | – | – | – | – | – | – | – | – | –
2 | CCN(CC)CC(C)(C)C(=O)/C=C/c1cccc(/C=C/C(=O)C(C)(C)CN(CC)CC)c1 | 1.87 µM | 2.71 µM | – | 5.14 µM | – | 3.28 µM | 2.27 µM | 2.7 µM | – | – | – | – | – | – | – | – | – | – | – | –
3 | c1ccc([CH2][Sn]([CH2]c2ccccc2)([O]c2cccc3cccnc23)[O]c2cccc3cccnc23)cc1 | 0.385 µM | 0.692 µM | > 100 µM | 0.515 µM | 0.351 µM | 1.92 µM | 0.677 µM | 1.84 µM | 0.155 µM | 0.429 µM | 0.314 µM | 0.207 µM | 0.508 µM | 0.186 µM | 0.579 µM | 0.248 µM | – | – | – | –
4 | C#CCNC(=O)N(CC#C)N=O | > 100 µM | > 100 µM | 63.4 µM | > 100 µM | 41.6 µM | > 100 µM | > 100 µM | > 100 µM | – | – | – | – | – | – | – | – | – | – | – | –
5 | COc1ccccc1C1C(Cl)C(=O)N1n1cnc2ccccc2c1=O (stereo not drawn) | > 100 µM | – | > 100 µM | > 100 µM | > 100 µM | > 100 µM | – | > 100 µM | – | – | – | – | – | – | – | – | – | – | – | –
6 | CC(C)N1CC2CN(Cc3ccccc3)CC(C1)C2=O | > 100 µM | – | > 100 µM | > 100 µM | > 100 µM | > 100 µM | > 100 µM | > 100 µM | – | – | – | – | – | – | – | – | > 100 µM | > 100 µM | – | –
7 | CCOC(=O)c1ccc2c(c1)Cc1cc([N+](=O)[O-])ccc1-2 | > 100 µM | > 100 µM | > 100 µM | > 100 µM | – | > 100 µM | > 100 µM | > 100 µM | – | – | – | – | – | – | – | – | > 100 µM | > 100 µM | – | –
8 | Nc1ccccc1NC(=O)c1ccc(CNc2nccc(-c3cccnc3)n2)cc1 | > 47.9 µM | – | 2.43 µM | > 51.8 µM | 1.76 µM | > 100 µM | 13.1 µM | > 68.1 µM | 2.15 µM | – | 0.424 µM | 1.34 µM | 1.4 µM | 0.337 µM | 0.722 µM | 0.805 µM | > 100 µM | 1.25 µM | 2.44 µM | 0.299 µM
9 | COC1OC(CO)C(O)C(OC(C)=O)C1NC(=O)N(CCCl)N=O (stereo not drawn) | > 100 µM | > 100 µM | > 100 µM | – | > 100 µM | > 100 µM | > 100 µM | > 100 µM | – | – | – | – | – | – | – | – | – | – | – | –
10 | O=[N+]([O-])c1ccc(C2CC(c3ccccc3Cl)=Nc3ccccc3S2)cc1 (stereo not drawn) | 12.3 µM | 17.4 µM | 6.36 µM | 68.2 µM | 8.16 µM | 38.5 µM | 17.7 µM | 10.8 µM | – | – | – | – | – | – | – | – | – | – | – | –
11 | Oc1ccc([Te]CCNCC[Te]c2ccc(O)cc2)cc1 | > 100 µM | 46.6 µM | 38.5 µM | 46.5 µM | – | 75.4 µM | – | 23.2 µM | – | – | – | – | – | – | – | – | – | – | – | –
12 | CCCCCCCCOCC(O)COC(C)C (stereo not drawn) | > 100 µM | > 100 µM | 31.7 µM | > 100 µM | – | > 100 µM | – | 88 µM | – | – | – | – | – | – | – | – | – | – | – | –
13 | Cc1cc([N+](=O)[O-])ccc1NC(=O)C(=O)C(C(=O)c1ccccc1-c1ccccc1)C1OC(=O)c2ccccc21 (stereo not drawn) | 32.5 µM | – | – | – | 26.2 µM | 50.9 µM | 21.7 µM | 80 µM | – | – | – | – | – | – | – | – | – | – | – | –
14 | N.N.NCCCCCN.O=C([O-])CCl.O=C([O-])CCl.O=C([O-])CCl.O=C([O-])CCl.[Pt+4].[Pt+4] | 24.4 µM | 31.2 µM | 11.2 µM | 12.5 µM | 73.8 µM | 86 µM | 19.8 µM | – | 3.36 µM | 11 µM | 1.43 µM | 1.36 µM | – | 3.3 µM | 1.84 µM | 3.08 µM | – | – | – | –
15 | C=C1CC2CCCC12C=O (stereo not drawn) | > 10 µM | – | > 10 µM | > 10 µM | > 10 µM | > 10 µM | > 10 µM | > 10 µM | – | – | – | – | – | – | – | – | > 10 µM | > 10 µM | – | –
16 | CN1C(=O)CCC2[C@@H]3CC=C4C[C@@H](O)CC[C@]4(C)C3CC[C@@]21C (stereo partly drawn) | > 100 µM | > 100 µM | 56 µM | > 100 µM | – | > 100 µM | > 100 µM | > 100 µM | – | – | – | – | – | – | – | – | – | – | – | –
17 | O=c1cc(-c2ccccc2)oc2ccc(OC/C(=N/O)c3ccccc3)cc12 | > 50 µM | – | > 50 µM | > 50 µM | > 50 µM | 3.34 µM | 2.93 µM | > 50 µM | 8.92 µM | – | 2.12 µM | 9.62 µM | 2.4 µM | 2.88 µM | 1.25 µM | 1.39 µM | > 50 µM | – | 2.63 µM | –
18 | COC(=O)C1=Cc2cc(OC)c(OC)c(OC)c2[C@H](c2cc(OC)c(OC)c(OC)c2)C1C(=O)OC (stereo partly drawn) | > 100 µM | > 100 µM | > 100 µM | > 100 µM | > 100 µM | > 100 µM | > 100 µM | > 100 µM | – | – | – | – | – | – | – | – | – | – | – | –
19 | Cc1ccc(S(=O)(=O)c2ccc(NC(=O)SCCC(=O)O)cc2)cc1 | > 100 µM | > 100 µM | > 100 µM | > 100 µM | > 100 µM | > 100 µM | > 100 µM | > 100 µM | – | – | – | – | – | – | – | – | – | – | – | –
20 | NCCCNc1nc2ccccc2c2c(=O)c3cc(F)cc(F)c3sc12 | 3.12 µM | 2.93 µM | 4.2 µM | – | – | 4.06 µM | 3.24 µM | 3.36 µM | 1.49 µM | 1.38 µM | 2.08 µM | – | 1.78 µM | – | 1.99 µM | 1.77 µM | 3.02 µM | 3.02 µM | 1.49 µM | 1.63 µM
21 | O=C(C=C1SCCS1)/C=C\c1ccc(Cl)cc1 | > 100 µM | > 100 µM | > 100 µM | > 100 µM | > 100 µM | > 100 µM | > 100 µM | > 100 µM | – | – | – | – | – | – | – | – | – | – | – | –
22 | COc1c(C)cc(O)cc1C=O | > 100 µM | – | > 100 µM | > 100 µM | > 100 µM | > 100 µM | > 100 µM | – | – | – | – | – | – | – | – | – | – | – | – | –
